# Reference: paper PMC5432002, “The active site structure and catalytic mechanism of arsenite oxidase” (Scientific Reports, 2017)
# Biological target: T1, NT-26 arsenite oxidase (NT-26 Aio) (Pseudorhizobium banfieldiae, UniProt Q6VAL8)
# T1 construct: gene aroA; A subunit with Mo site and [3Fe-4S], B subunit with Rieske [2Fe-2S]; with Arsenite oxidase subunit AioB
# Format: binding
structure (smiles),measurement,value
O[As](O)O [arsenite],Mo....As EXAFS interaction,suggesting the presence of bound substrate or product through a Mo—O—As linkage
